≈ marks a conversion by molar mass, not a printed value. Read-outs that look alike come from different tables or passages of the source.
How the values were obtained:
[1] = system: MRSA; assay: antibacterial activity (MIC) by agar plate dilution method, MRSA strains; format: cell-based, methicillin-resistant Staphylococcus aureus; conditions: Staphylococcus aureus, 20 h, MRSA (20 strains); for MIC50: read-out: MIC50; for MIC: MRSA, range over strains, read-out: MIC
Method: (§1) The screening of the present invention may be carried out according to the agar plate dilution method designated by the Japan Society of Chemotherapy (Chemotherapy 29(1), 76-79 (1981)). Mueller-Hinton agar base semi-synthetic medium may be used for a plate culture medium for a sensitivity test together with an inoculating bacteria solution which may be prepared by culturing bacteria to be tested at 37° C. for 20 hours diluted with 8.5% by isotonic sodium chloride solution to 10^6 CFU/ml. Diluted β-lactam solutions are prepared by two times serial dilution. 1 ml of the diluted β-lactam solution and 1 ml of a predetermined concentration of a sample to be tested are added to 8 ml of the plate culture medium for a sensitivity test. To the resultant plate culture medium for sensitivity test, the bacteria are inoculated using a microplanter (SAKUMASEISAKUSYO Co.), cultured for 20 hours at 37° C. followed by assessing for a minimum inhibition concentration (MIC).
(§2) (A) Antibacterial activities of ether extract from Scutellaria barbata, SB-1 (isolated from Scutellaria barbata), apigenin (authentic sample) and luteolin (authentic sample) were shown in Table 1.
(§3) Flavones were dissolved in methanol and the others were dissolved in 0.1 N NaOH. A method for determination of antibacterial activity is, as described above, an agar plate dilution method designated by the Japan Society of Chemotherapy (Chemotherapy 29(1), 76-79 (1981)) to determine MIC value. MIC80 is a concentration at which a strain is prohibited to proliferate by 80% and MIC50 is a concentration at which a strain is prohibited to proliferate by 50%.

[2] = system: MSSA; assay: antibacterial activity (MIC) by agar plate dilution method, MSSA strains; format: cell-based, Methicillin-sensitive Staphylooccus aureus; conditions: Staphylococcus aureus, 20 h, MSSA (7 strains); for MIC50: read-out: MIC50; for MIC: MSSA, range over strains, read-out: MIC
Method: as §1, §2, §3

[3] = system: MRSA; assay: antibacterial activity of antibiotics alone and in the presence of apigenin (4 μg/ml), MRSA; format: cell-based, methicillin-resistant Staphylococcus aureus; conditions: for MIC / MIC50: Staphylococcus aureus, MRSA, 20 h
Method: as §1
(D) Then use of 4 μg/ml of apigenin and other antibiotics at the same time was studied. The antibiotics are penicillin , ampicillin, cephalothin, cefoxitin, cefuroxime, cefotaxime, vancomycin, streptomycin, chloramphenicol, kanamycin, erythromycin, nalixic acid and tetracycline.

[4] = system: MRSA No. 5; assay: effect of flavone on antibacterial activity of antibiotics against MRSA No. 5 in bouillon (broth microdilution); format: cell-based, methicillin-resistant Staphylococcus aureus; conditions: for MIC: Staphylococcus aureus, MRSA, 20 h; for inhibitory effect on resistance of MRSA No.5 (in words): in the presence of flavone 0.5 mM
Method: Alternatively, the screening of the present invention may be carried out according to the broth microdilution method designated by the Japan Society of Chemotherapy (Chemotherapy 38(1), 102-105 (1990)). Muellar-Hinton broth is used as a culture medium for the sensitivity test, and 50 mg/ml of calcium(Ca) ion, 25 mg/ml of magnesium(Mg) ion, and 2% sodium chloride (NaCl) are added thereto. An inoculating bacteria solution may be prepared by culturing bacteria to be tested in Mueller-Hinton broth at 37° C. for 20 hours and diluting with Mueller-Hinton broth to 10^5 CFU/ml final concentration of inoculating bacteria. Diluted β-lactam solution is prepared by two times serial dilution series. 10 μl of the diluted β-lactam solution and 10 μl of a predetermined concentration of a sample of bacteria to be tested are added to mix with 80 μl of the culture medium for the sensitivity test. To the resultant plate culture medium for sensitivity test, the inoculating bacteria are added and culturing is carried out for 20 hours at 37° C. and then assessment for a minimum inhibition concentration (MIC) is carried out. A minimum inhibition concentration means the minimum concentration of β-lactam at which growth of bacteria is not recognized by the naked eye.
(G) Antibacterial activity of 6 β-lactams, that is, cephalothin, cefuroxime, cefotaxime, cefoxitin, streptomycin and vancomycin, against MRSA in the presence of 0.5 mM flavone was studied in bouillon.
Muellar-Hinton broth was used as a culture medium for the sensitivity test, and 50 mg/ml of calcium (Ca) ion, 25 mg/ml of maqnesium (Mg) ion, 2% sodium chloride (NaCl) were added thereto. An inoculating bacteria solution was prepared by culturing bacteria to be tested with Mueller-Hinton broth at 37° C. for 20 hours and diluting with Mueller-Hinton broth to 10^5 CFU/ml final concentration of inoculating bacteria. Diluted β-lactam solutions were prepared in two times serial dilutions starting from 10 mM. Ten microliters of the diluted β-lactam solution and 10 μl of 5 mM of flavone were mixed with 80 μl of the culture medium for the sensitivity test in a microplate having U-shaped wells and samples of bacteria to be tested were added thereto. The mixture was cultured 20 hours at 37° C. and then assessed for minimum inhibition concentration (MIC). Minimum inhibition concentration means minimum concentration of a β-lactum at which growth of bacteria is inhibited to the extent that bacteria is not recognized by the naked eye.

[5] = Antibiotics alone, read-out: MIC50
[6] = antibiotic with Apigenin (4 μg/ml), read-out: MIC
[7] = antibiotic with Apigenin (4 μg/ml), read-out: MIC50
[8] = Concentration of flavone 0 mM, read-out: MIC
[9] = Concentration of flavone 0.5 mM, read-out: MIC
[10] = antibiotic with Apigenin (4 μg/ml)

MIC50 [1] [µg/mL] | MIC [1] [µg/mL] | MIC50 [2] [µg/mL] | MIC [2] [µg/mL] | MIC50 [3, 5] [µg/mL] | MIC50 [3, 7] [µg/mL] | Structure (SMILES) | inhibitory effect on resistance of MRSA No.5 (in words) [4] | also measured
> 250 | > 250 | > 250 | > 250 | – | – | Oc1cc(O)c2c(c1)O[C@H](c1ccc(O)c(O)c1)[C@@H](O)C2 [(+)-Catechin, (+)-catechin] | – | –
– | – | – | – | 31.3 | 31.3 | CC1(C)S[C@@H]2[C@H](NC(=O)[C@H](N)c3ccccc3)C(=O)N2[C@H]1C(=O)O [Ampicillin, ampicillin] | – | MIC ([3]; Antibiotics alone, read-out: MIC): 2 to 125 µg/mL; MIC [3, 6]: 2 to 62.5 µg/mL
– | – | – | – | > 250 | > 250 | CO/N=C(\C(=O)N[C@@H]1C(=O)N2C(C(=O)O)=C(COC(C)=O)CS[C@H]12)c1csc(N)n1 [Cefotaxime, cefotaxime] | showed inhibitory effect on resistance of MRSA No.5 | MIC [4, 8]: 1000 µM (≈ 455 µg/mL); MIC [4, 9]: 7.8 µM (≈ 3.55 µg/mL)
– | – | – | – | 250 | 31.3 | CO[C@@]1(NC(=O)Cc2cccs2)C(=O)N2C(C(=O)O)=C(COC(N)=O)CS[C@@H]21 [Cefoxitin, cefoxitin] | showed the inhibitory effect remarkably | MIC [3, 6]: 2 to 125 µg/mL; inhibition of β-lactam resistant MRSA / improvement of antibacterial effect with apigenin (in words) ([3]; apigenin 4 μg/ml or less than its MIC): inhibited β-lactam resistant MRSA; MIC [4, 8]: 1000 µM (≈ 427 µg/mL); MIC [4, 9]: < 0.98 µM
– | – | – | – | > 250 | > 250 | CO/N=C(\C(=O)N[C@@H]1C(=O)N2C(C(=O)O)=C(COC(N)=O)CS[C@H]12)c1ccco1 [Cefuroxime, cefuroxime] | showed inhibitory effect on resistance of MRSA No.5 | MIC [4, 8]: > 1000 µM; MIC [4, 9]: 7.8 µM (≈ 3.31 µg/mL)

The remaining lines, values behind:

Structure (SMILES) | MIC50 [1] [µg/mL] | MIC [1] [µg/mL] | MIC50 [2] [µg/mL] | MIC [2] [µg/mL] | MIC50 [3, 5] [µg/mL] | MIC50 [3, 7] [µg/mL] | inhibitory effect on resistance of MRSA No.5 (in words) [4] | also measured
COc1ccc(-c2cc(=O)c3c(O)cc(O)cc3o2)cc1 [Acacetin, acacetin] | > 250 | > 250 | > 250 | > 250 | – | – | – | –
O=c1cc(-c2ccccc2)oc2cc(O)c(O)c(O)c12 [Baicalein, baicalein] | > 250 | > 250 | > 250 | > 250 | – | – | – | –
CC(=O)OCC1=C(C(=O)O)N2C(=O)[C@@H](NC(=O)Cc3cccs3)[C@H]2SC1 [Cephalothin, cephalothin] | – | – | – | – | – | – | showed inhibitory effect on resistance of MRSA No.5 | MIC ([3]; Antibiotics alone): 0.98 to 250 µg/mL; MIC50 ([3]; Antibiotics alone): 125 µg/mL; MIC [3, 10]: 0.98 to 250 µg/mL; MIC50 [3, 10]: 125 µg/mL; MIC ([4]; Concentration of flavone 0 mM): 500 µM (≈ 198 µg/mL); MIC ([4]; Concentration of flavone 0.5 mM): 1.95 µM (≈ 0.773 µg/mL)
O=C(N[C@H](CO)[C@H](O)c1ccc([N+](=O)[O-])cc1)C(Cl)Cl [Chloramphenicol, chloramphenicol] | – | – | – | – | – | – | – | MIC ([3]; Antibiotics alone): 2 to 62.5 µg/mL; MIC50 ([3]; Antibiotics alone): 7.8 µg/mL; MIC [3, 10]: 3.9 to 31.3 µg/mL; MIC50 [3, 10]: 7.8 µg/mL
O=c1cc(-c2ccccc2)oc2cc(O)cc(O)c12 [Chrysin, chrysin] | > 250 | > 250 | > 250 | > 250 | – | – | – | –
O=c1c(-c2ccc(O)cc2)coc2cc(O)ccc12 [Daidzein, daidzein] | > 250 | > 250 | > 250 | > 250 | – | – | – | –
CC[C@H]1OC(=O)[C@H](C)[C@@H](O[C@H]2C[C@@](C)(OC)[C@@H](O)[C@H](C)O2)[C@H](C)[C@@H](O[C@@H]2O[C@H](C)C[C@H](N(C)C)[C@H]2O)[C@](C)(O)C[C@@H](C)C(=O)[C@H](C)[C@@H](O)[C@]1(C)O [Erythromycin, erythromycin] | – | – | – | – | – | – | – | MIC50 ([3]; Antibiotics alone): > 250 µg/mL; MIC50 [3, 10]: > 250 µg/mL
COc1ccc(-c2coc3cc(O)ccc3c2=O)cc1 [Formononetin, formononetin] | > 250 | > 250 | > 250 | > 250 | – | – | – | –
